Converted amounts (≈) assume the structure as drawn.
How the values were obtained:
[1] = tested on: Bacillus Subtilis; test: Antibacterial activity, MIC by double-microdilution method; type: cell-based; settings: Bacillus Subtilis; for MIC / Gram-positive MIC d: Table 2; for MIC: read-out: Gram-positive MIC d
[2] = tested on: Gram-negative and Gram-positive bacteria; test: Comparative antibacterial activity, all tested bacteria; type: cell-based; settings: for antibacterial activity (in words): MIC, Table 2 and 3
Description: Comparative antibacterial activities were determined by measuring the MIC values by using the double-microdilution method according to the National Committee for Clinical Laboratory Standards (NCCLS). The Luria-Bertani growth medium and polypropylene 96-well plates (Thermo) were used unless otherwise stated. All the experiments were performed in triplicate, and analogous results were obtained in three different experiments.
Compounds 1-6 and their Cu(II) and Co(III) complexes, as well as the pendant-bearing compounds 19-23 and 26 were tested for their comparative antibacterial activity by determining MIC values against two Gram-negative E. coli strains (AR477-100 and 25922) and two Gram-positive strains, Staphylococcus Epidermidis, and Bacillus Subtilis.

[3] = tested on: Staphylococcus Epidermidis; test: Antibacterial activity, MIC by double-microdilution method; type: cell-based; settings: for MIC: Table 2, read-out: Gram-positive MIC c; for Gram-positive MIC c: Table 2
[4] = tested on: Escherichia coli R477-100; test: as above; type: cell-based; settings: Escherichia coli R477-100; for MIC: R477100, read-out: Gram-negative MIC a; for MIC / Gram-negative MIC a: Table 2, without DTT
[5] = target: T1, E. coli DNA gyrase (Escherichia coli, UniProt P0AES4+P0AES6); test: E. coli Gyrase-DNA supercoiling assay; type: biochemical; settings: supercoiling of relaxed pHOT-1 plasmid in presence of ATP; 37° C., 60 minutes
T1 construct: purchased TopoGEN
T1 sequence (P0AES4 whole entry, one chain of several): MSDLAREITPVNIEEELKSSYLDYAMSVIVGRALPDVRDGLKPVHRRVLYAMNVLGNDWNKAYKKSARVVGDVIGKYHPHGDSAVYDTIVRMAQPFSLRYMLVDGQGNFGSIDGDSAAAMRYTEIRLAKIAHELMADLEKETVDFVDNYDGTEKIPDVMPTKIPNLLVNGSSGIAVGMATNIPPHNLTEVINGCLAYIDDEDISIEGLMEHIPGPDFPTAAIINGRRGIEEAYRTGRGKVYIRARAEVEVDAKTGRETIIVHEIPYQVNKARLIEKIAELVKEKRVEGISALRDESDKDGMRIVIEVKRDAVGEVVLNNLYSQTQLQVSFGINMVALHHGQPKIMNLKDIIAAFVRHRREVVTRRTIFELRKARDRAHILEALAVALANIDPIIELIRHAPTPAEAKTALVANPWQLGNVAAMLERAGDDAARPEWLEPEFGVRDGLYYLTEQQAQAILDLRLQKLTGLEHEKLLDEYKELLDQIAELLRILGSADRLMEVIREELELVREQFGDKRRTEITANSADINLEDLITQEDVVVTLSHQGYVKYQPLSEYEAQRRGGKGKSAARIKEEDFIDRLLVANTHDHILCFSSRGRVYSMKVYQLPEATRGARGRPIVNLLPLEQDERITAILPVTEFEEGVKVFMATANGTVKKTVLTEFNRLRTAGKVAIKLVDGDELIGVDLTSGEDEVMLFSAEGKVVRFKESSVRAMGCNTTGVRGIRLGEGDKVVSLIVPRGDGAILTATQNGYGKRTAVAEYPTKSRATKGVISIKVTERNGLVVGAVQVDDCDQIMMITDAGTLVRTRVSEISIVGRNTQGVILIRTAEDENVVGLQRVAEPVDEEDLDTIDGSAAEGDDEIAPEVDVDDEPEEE
Description: The DNA supercoiling reactions were based on the manufacturer protocol (TopoGEN). The amount of DNA gyrase used in each assay was optimized by testing various dilutions of the stock. The amount sufficient to supercoil 250 nanograms (ng) of the substrate in 1 hour at 37° C. was then used for testing the compounds (1.1 U as defined by manufacturer). Assays (30 μL) contained 250 nanograms of relaxed pHOT1 plasmid DNA in Tris-HCl buffer (35 mM), pH 7.5, containing KCl (24 mM), MgCl2 (4 mM), DTT (2 mM), Spermidine (1.8 mM), ATP (1 mM), 6.5% (w/v) glycerol and bovine serum albumin (0.1 mg/ml). Reactions were incubated at 37° C. for 60 minutes. Reaction mixtures were stopped by the addition of 30 μL of loading buffer (40% sucrose, 100 mM Tris·HCl (pH 7.5), 1 mM EDTA, 0.5 mg×mL^−1 bromophenol blue) and worked up using 30 μL of 24:1 chloroform/isoamyl alcohol mixture; the aqueous layer was then analyzed using electrophoresis.
Electrophoresis, gel staining, DNA visualization and DNA quantification were performed as described for the DNA cleavage assays.

[6] = tested on: Escherichia coli 25922; test: Antibacterial activity, MIC by double-microdilution method; type: cell-based; settings: Table 2, Escherichia coli 25922; for MIC: read-out: Gram-negative MIC b
[7] = tested on: supercoiled (+) pHOT-1 plasmid DNA; test: DNA cleavage assay (gel electrophoresis); type: biochemical; settings: for DNase activity (cleavage of supercoiled plasmid, form I to form II): HEPES buffer (50 mM, pH 7.4)
Description: Removal of Ligands Prior to Electrophoresis was performed when more than 100 μM of Cu(II)-ligand or Co(III) ligand (at any concentration) complexes were employed that is, for DNA cleavage assays that were performed in the absence of any adjuvants. An Amberlyst® 15 (Sigma Aldrich) ion-exchange resin was prepared according to the reported literature [Hettich et al. J. Am. Chem. Soc. 1997, 119 (24), 5638-5647] and stored at −20° C. Before use, 0.5 gram of the exchanger was mixed with 250 μL of water. After stopping the DNA-cleavage reaction by addition of EDTA (54 mM, 15 minutes incubation at 37° C.), 10 μL of the exchanger suspension was added, vortexed, and incubated at 37° C. for 15 minutes before centrifugation and electrophoresis.
DNA cleavage activity of the tested Complexes towards supercoiled (+) pHOT-1 plasmid DNA (TopoGEN) was monitored by gel electrophoresis. In a typical experiment, plasmid DNA (200 ng, […]) in HEPES buffer (50 mM, pH 7.4) was mixed with different concentrations of a tested metal complex in the presence or absence of ascorbic acid (0.32 mM). All stock solutions of buffers and of the metal complexes were prepared using HPLC grade water (ChromAR®). Molecular biology reagent grade water (Sigma) was added up to a total reaction volume of 30 μL before incubation for a given time. For the ascorbic acid assays, the reaction was quenched immediately after incubation with EDTA (54 mM). For analysis, 10 μL of loading buffer (40% sucrose, 100 mM Tris-HCl (pH 7.5), 1 mM EDTA, 0.5 mg·mL^−1 bromophenol blue) was added to the incubated solution and loaded onto an agarose (SeaKem LE) gel [1% in TAE×1 buffer (40 mM Tris, 20 mM acetic acid, 1 mM EDTA)]. Electrophoresis was carried out at 60 V for 2 hours. Gels were stained with 1 μg·mL^−1 ethidium bromide for 30 minutes and de-stained in TAE×1 buffer. DNA bands were visualized with medium-range ultraviolet light using Bio-Rad Gel Doc XR+ imaging system. The quantity of different DNA forms (I or II) was estimated using ImageJ software.
Chem. 2015, 2015 (28), 4722-4730; Kashiba-Iwatsuki et al. FEBS Lett. 1996, 389 (2), 149-15].
The copper complex of compound 2 (2-Cu(II)) was used as the positive control in these assays.

[8] = tested on: supercoiled (+) pHOT-1 plasmid DNA; test: DNA cleavage assay (gel electrophoresis); type: biochemical

Q: What does the source list for `O=C(O)c1cn(C2CC2)c2cc(N3CCN(Cc4ccc(CCCN5CCNCCNCCNCC5)cc4)CC3)c(F)cc2c1=O` [Compound 6]?
A: MIC [1]: 3 µg/mL (≈ 4.73 µM); antibacterial activity (in words) [2]: slightly higher activity; MIC [3]: 1.5 µg/mL (≈ 2.37 µM); MIC [4]: 3 µg/mL (≈ 4.73 µM); IC50 [5]: 0.07 ± 0.02 µM; MIC [6]: 1.5 µg/mL (≈ 2.37 µM)

Q: How did the “Gram-positive MIC d” value [1] turn out when `O.O=C(O)c1cn(C2CC2)c2cc(N3CCN(Cc4ccc(CCN5CCNCCNCCNCC5)cc4)CC3)c(F)cc2c1=O.[Cu+2]` [5-Cu(II)] was run?
A: The value was 3 µg/mL.

Q: What about the “DNase activity (cleavage of supercoiled plasmid, form I to form II)” value ([7]; absence of adjuvants, 5 hours) of the same compound?
A: Its value is “significant cleavage enhancement even in relation to the activity of 1-Cu(II) and 4-Cu(II)”.

Q: And the “effect of NaN3 on cleavage” value ([7]; ascorbic acid (0.32 mM), complex 0.01 mM, scavenger 10 mM, 2 hours)?
A: The value was “no inhibition whatsoever”.

Q: And the “effect of hydroxyl radical scavengers DMSO and t-BuOH on cleavage” value ([7]; no adjuvants, complex 0.5 mM, scavengers 10 mM, 5 hours)?
A: The value was “no significant inhibitory effect”.

Q: What about the “oxidative cleavage activity in Tris buffer with DTT” value ([8]; Tris-HCl buffer (35 mM, pH 7.5), DTT (2 mM), complex 0.5 mM, 2.5 hours) of the same compound?
A: The value was “retain significant oxidative cleavage activity”.

Q: And the “hydrolytic DNA cleavage in presence of Tris-buffer or spermidine” value ([8]; complex 0.5 mM, 2.5 hours)?
A: The value was “inhibit the hydrolytic DNA cleavage of plasmid DNA”.

Q: And the “Gram-positive MIC c” value [3]?
A: Its value is 6 µg/mL.

Q: And the “Gram-negative MIC a” value [4]?
A: The value was 6 µg/mL.

Q: And the IC50 [5]?
A: The IC50 was 0.18 ± 0.03 µM.

Q: What about the “Gram-negative MIC b” value [6] of the same compound?
A: Its value is 6 µg/mL.

Q: With `O.O=C(O)c1cn(C2CC2)c2cc(N3CCN(Cc4ccc(CCN5CCNCCNCCNCC5)cc4)CC3)c(F)cc2c1=O.[Co+3].[OH-]` [5-Co(III)] as the compound, how does the “Gram-positive MIC d” value [1] read?
A: The value was 3 µg/mL.

Q: What about the “antibacterial activity (in words)” value [2] of the same compound?
A: Its value is “slightly higher activity”.

Q: And the “Gram-positive MIC c” value [3]?
A: The value was 3 µg/mL.

Q: What about the “Gram-negative MIC a” value [4] of the same compound?
A: Its value is 3 µg/mL.

Q: And the “Gram-negative MIC b” value [6]?
A: Its value is 1.5 µg/mL.

Q: Which results are given for `O=C(O)c1cn(C2CC2)c2cc(N3CCN(Cc4ccc(CCN5CCNCCNCCNCC5)cc4)CC3)c(F)cc2c1=O` [Compound 5]?
A: MIC [1]: 3 µg/mL (≈ 4.84 µM); antibacterial activity (in words) [2]: slightly higher activity; MIC [3]: 3 µg/mL (≈ 4.84 µM); MIC [4]: 6 µg/mL (≈ 9.68 µM); IC50 [5]: 0.15 ± 0.04 µM; MIC [6]: 3 µg/mL (≈ 4.84 µM)

Q: With `N=C(N)NCCN1CCNCCNCCN(CCCCc2ccc(CN3CCN(c4cc5c(cc4F)c(=O)c(C(=O)O)cn5C4CC4)CC3)cc2)CC1` [Compound 22] as the compound, how does the “Gram-positive MIC d” value [1] read?
A: The value was 1.5 µg/mL.

Q: What about the “Gram-positive MIC, DTT 0 mM” value ([1]; Table 3, DTT 0 mM) of the same compound?
A: Its value is 1.5 µg/mL.

Q: What about the “Gram-positive MIC, DTT 2 mM” value ([1]; Table 3, DTT 2 mM) of the same compound?
A: The value was 1.5 µg/mL.

Q: What about the “Gram-positive MIC, DTT 10 mM” value ([1]; Table 3, DTT 10 mM) of the same compound?
A: The value was 1.5 µg/mL.

Q: What about the “DNase activity (cleavage of supercoiled plasmid, form I to form II)” value ([7]; absence of adjuvants, 5 hours) of the same compound?
A: The value was “significant DNase activity”.

Q: And the “antibacterial activity (in words)” value [2]?
A: The value was “slightly higher activity”.

Q: And the “better antibacterial activity compared to all the other pendant-bearing metal-free ligands” value ([2]; Table 2 MIC)?
A: Its value is 4-8 fold.

Q: And the “Gram-positive MIC c” value [3]?
A: The value was 6 µg/mL.

Q: What about the “Gram-negative MIC, DTT 10 mM” value ([4]; DTT 10 mM) of the same compound?
A: Its value is 3 µg/mL.

Q: And the “Gram-negative MIC a” value [4]?
A: The value was 3 µg/mL.

Q: And the “Gram-negative MIC, DTT 0 mM” value ([4]; Table 3, DTT 0 mM)?
A: Its value is 3 µg/mL.

Q: And the “Gram-negative MIC, DTT 2 mM” value ([4]; Table 3, DTT 2 mM)?
A: The value was 3 µg/mL.

Q: And the “Gram-negative MIC b” value [6]?
A: Its value is 3 µg/mL.

Q: Which “DNase activity at micromolar concentrations” value ([7]; FIG. 32: 0.2 μg DNA over 2 hours (Co(III)-cyclen, 4-Co(III)), 0.6 μg DNA over 10 hours (23-Co(III))) does the source give for `C1CNCCNCCNCCN1.O.[Co+3].[OH-]` [Co(III)-cyclen, reference compound] here?
A: Its value is “inactive”.

Q: And the “effect of Co(III) complexes on plasmid DNA” value ([7]; absence of adjuvants, HEPES pH 7.4, 0.5 hours, micromolar concentrations)?
A: Its value is “no effect whatsoever”.

Q: What about the “DNase activity in TRIS buffer with ATP” value ([8]; 50 mM TRIS buffer, 1.8 mM ATP) of the same compound?
A: Its value is “not inhibited by ATP”.

Q: What about the “DNase activity in TRIS buffer with glutamate” value ([8]; 50 mM TRIS buffer, 100 mM potassium glutamate) of the same compound?
A: Its value is “very strongly inhibited by glutamate”.

Reference: patent publication US20230357189A1, “MODIFIED FLUOROQUINOLONES AND USES THEREOF” (Technion Research & Development Foundation Limited, priority 2021, published 2023)
